The target in this test is T1, mTLR9 (Mus musculus, UniProt Q9EQU3).
T1 construct: Splenocytes isolated from male C57/BL6 mice; from tissue; host or cells: splenocytes from the spleen of male C57BL/6 mice
T1 sequence (Q9EQU3 26-1032): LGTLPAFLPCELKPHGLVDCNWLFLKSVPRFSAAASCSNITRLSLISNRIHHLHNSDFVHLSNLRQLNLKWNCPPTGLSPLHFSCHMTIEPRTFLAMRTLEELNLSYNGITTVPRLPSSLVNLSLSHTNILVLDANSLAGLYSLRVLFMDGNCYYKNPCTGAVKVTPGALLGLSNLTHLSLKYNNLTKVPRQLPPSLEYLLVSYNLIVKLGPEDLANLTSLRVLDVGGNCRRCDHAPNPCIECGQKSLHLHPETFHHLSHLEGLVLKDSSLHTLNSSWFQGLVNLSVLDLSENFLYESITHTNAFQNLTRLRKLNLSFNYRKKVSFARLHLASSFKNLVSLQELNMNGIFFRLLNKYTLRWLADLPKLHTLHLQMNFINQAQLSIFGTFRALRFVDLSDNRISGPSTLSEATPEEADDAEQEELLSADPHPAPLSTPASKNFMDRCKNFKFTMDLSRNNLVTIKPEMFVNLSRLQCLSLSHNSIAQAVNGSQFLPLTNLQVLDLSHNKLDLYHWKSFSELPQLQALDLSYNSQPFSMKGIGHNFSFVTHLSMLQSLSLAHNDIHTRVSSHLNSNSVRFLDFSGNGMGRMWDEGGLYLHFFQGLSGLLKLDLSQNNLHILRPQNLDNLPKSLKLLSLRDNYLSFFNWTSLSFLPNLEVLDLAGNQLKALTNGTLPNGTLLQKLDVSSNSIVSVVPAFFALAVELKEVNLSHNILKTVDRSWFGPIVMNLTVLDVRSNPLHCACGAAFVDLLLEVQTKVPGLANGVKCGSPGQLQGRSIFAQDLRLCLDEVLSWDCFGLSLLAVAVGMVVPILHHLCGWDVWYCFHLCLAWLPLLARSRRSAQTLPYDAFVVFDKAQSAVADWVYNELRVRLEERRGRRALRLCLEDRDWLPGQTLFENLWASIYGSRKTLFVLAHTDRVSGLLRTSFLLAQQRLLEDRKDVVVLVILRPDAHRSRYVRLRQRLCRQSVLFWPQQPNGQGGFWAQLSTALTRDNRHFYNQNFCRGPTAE
Nature of the test: mTLR9 antagonism (IL-6 and TNF-α release assay) in mouse splenocytes, CpG ODN-2006 stimulated. It is filed as cell-based. An excerpt:
mTLR9 and mTLR7 Antagonism (Cytokine Release Assay) in Mouse Splenocytes
TLR7 ligand R0006 (IDT, 5′-rU*rU*rG*rU*rU*rG*rU*rU*rG*rU*rU*rG*rU*rU*rG*rU*rU*rG*rU*rU-3′ (SEQ ID NO:1)), Liposomal transfection reagent—DOTAP (Roche, Cat. No. 11202375001), TLR9 ligand CpG ODN2006 (Sequence: T*C*G*T*C*G*T*T*T*T*G*T*C*G*T*T*T*T*G*T*C*G*T*T; *=phosphorothioate (SEQ ID NO:2)) DMSO (Sigma, D2650), RPMI Powder (Sigma, R6504), Fetal Bovine Serum (Gibco, 10270), Dulbecco's Phosphate Buffered Saline (Sigma, D1408), 96 well plate (Flat bottom, Costar 3599), ELISA kit for IL-6 (EBioscience, 88-7064-77 and TNFa (EBioscience, 88-7346-88), MACS Buffer (AutoMACS Rinsing Solution (Miltenyl Biotec, 130-091-222)+0.05% BSA), RBC lysis buffer (0.85% NH4Cl), 40 μm cell strainer (BD Falcon, 352340) Method: A. Isolation of Mouse Splenocytes
Mouse spleen was isolated from C57BL6 mouse and stored in 1× chilled PBS buffer until further processed. Spleen was transferred to a sterile petriplate and chopped in to 5-6 pieces in presence of MACS buffer (100 μl) with the help of fresh surgical blade and crushed with flat plunger of a sterile syringe. A uniform suspension was prepared by passing cells through a 40 μm cell strainer. Cells were centrifuged at 450×g for 5 minutes at 4° C., supernatant was discarded and pellet dislodged gently, resuspended in 2 ml of pre-warmed (37° C.) RBC lysis buffer at room temperature with continuous gentle mixing with 1 ml pipette. Lysis buffer was neutralized with 12 ml of chilled MACS buffer and cells were passed through 40 μm cell strainer. Cell suspension was collected in 15 ml MACS buffer and centrifuged at 450×g for 5 minutes at 4° C. Pellet was resuspended in 15 ml MACS buffer and centrifuged at 400×g for 5 minutes. Cells were resuspended in 10 ml of RPMI complete medium and viability was estimated by Trypan blue method.
mTLR9 Antagonism (IL-6 and TNF-α Release Assay):
500 μM stock of CpG ODN-2006 was prepared in sterile, endotoxin-free water. Dilutions of 10× concentrations of NCEs were prepared in incomplete RPMI media, maintaining a final DMSO concentration of 0.3%. NCEs were added in a concentration range of 30 μM to 1 nM in respective wells of assay plate, assay medium containing 0.3% DMSO were added to control wells. 0.2 million splenocytes were added to all the wells and incubated at 37° C. in 5% CO2 incubator for 30 minutes. 1 μg/ml of respective agonist was added to all the wells except those were assigned as negative controls and mixed thoroughly. Incomplete RPMI was added to negative control wells and incubated overnight at 37° C./5% CO2. The plate was centrifuged at 450×g for 5 minutes at room temperature and the supernatant was collected. ELISA was performed as per manufacturer's protocol. S/B Ratio, % Activity and % Inhibition was calculated using MS Excel. IC50 and inhibition curve was generated using Graph Pad Prism.

Setting [1] is: 1 μM, IL-6 release, mouse splenocytes, read-out: mTLR9 inhibitory activity (% at 1 μM), IL-6.
Where [2] appears, read: 1 μM, TNF-α release, mouse splenocytes, read-out: mTLR9 inhibitory activity (% at 1 μM), TNF-α.

Here are results for 18 compounds from US9643967B2, “Pyrrolo[3,2-c]pyridine derivatives as TLR inhibitors” (TAKEDA PHARMACEUTICAL COMPANY LIMITED, priority 2013, dated 2017).

Read-outs that look alike come from different tables or passages of the source.

With `CC(C)N1CCN(c2ccc(-c3nccc4[nH]c(CN5CC(O)C5)cc34)cc2)CC1` [Example A72, 1-[[4-[4-(4-isopropylpiperazin-1-yl)phenyl]-1H-pyrrolo[3,2-c]pyridin-2-yl]methyl]azetidin-3-ol], the inhibition at 1 µM amounted to 72% under setting [1] and 0% under setting [2].

In the case of `CC(C)N1CCN(c2ccc(-c3nccc4[nH]c(CN5CCC[C@@H]5C(=O)O)cc34)cc2)CC1` [Example A74, (2R)-1-[[4-[4-(4-isopropylpiperazin-1-yl)phenyl]-1H-pyrrolo[3,2-c]pyridin-2-yl]methyl]pyrrolidine-2-carboxylic acid], the inhibition at 1 µM under setting [2] turned out to be 95%. As to `c1cc2[nH]c(CN3CCOCC3)cc2c(-c2ccc(N3CCN(C4COC4)CC3)cc2)n1` [Example A81, 4-[[4-[4-[4-(oxetan-3-yl)piperazin-1-yl]phenyl]-1H-pyrrolo[3,2-c]pyridin-2-yl]methyl]morpholine], the inhibition at 1 µM by setting is: under setting [1], 37%; under setting [2], 20%. For `CC(C)N1CCN(c2ccc(-c3nccc4[nH]c(C(=O)N5CCOCC5)cc34)cc2)CC1` [Example A82, [4-[4-(4-isopropylpiperazin-1-yl)phenyl]-1H-pyrrolo[3,2-c]pyridin-2-yl]-morpholino-methanone], the inhibition at 1 µM is, setting by setting: (read-out: mTLR9 inhibitory activity (% at 1 μM), IL-6) 100%; (read-out: mTLR9 inhibitory activity (% at 1 μM), TNF-α) 52%. Turning to `CC(C)N1CCN(c2ccc(-c3nccc4[nH]c(CCN5CCOCC5)cc34)cc2)CC1` [Example B1, 4-[2-[4-[4-(4-isopropylpiperazin-1-yl)phenyl]-1H-pyrrolo[3,2-c]pyridin-2-yl]ethyl]morpholine], the inhibition at 1 µM worked out at 100% under setting [1] and 100% under setting [2]. Turning to `CN1CCN(c2ccc(-c3nccc4[nH]c(CCN5CCOCC5)cc34)cc2)CC1` [Example B2, 4-[2-[4-[4-(4-methylpiperazin-1-yl)phenyl]-1H-pyrrolo[3,2-c]pyridin-2-yl]ethyl]morpholine], the inhibition at 1 µM under setting [1] was found to be 100% and the inhibition at 1 µM under setting [2] was 95%.

Regarding `Cc1cc2[nH]c(CCN3CCOCC3)cc2c(-c2ccc(N3CCN(C(C)C)CC3)cc2)n1` [Example B3, 4-[2-[4-[4-(4-isopropylpiperazin-1-yl)phenyl]-6-methyl-1H-pyrrolo[3,2-c]pyridin-2-yl]ethyl]morpholine], the inhibition at 1 µM under setting [1] amounted to 100% and the inhibition at 1 µM under setting [2] was 100%. In the case of `Cc1cc2[nH]c(CCN3CCOCC3)cc2c(-c2ccc(N3CCN(C)CC3)cc2)n1` [Example B4, 4-[2-[6-methyl-4-[4-(4-methylpiperazin-1-yl)phenyl]-1H-pyrrolo[3,2-c]pyridin-2-yl]ethyl]morpholine], under setting [2], the inhibition at 1 µM was found to be 100%.

As to `Cc1cc2[nH]c(CCN3CCCCC3)cc2c(-c2ccc(N3CCN(C(C)C)CC3)cc2)n1` [Example B5, 4-[4-(4-isopropylpiperazin-1-yl)phenyl]-6-methyl-2-[2-(1-piperidyl)ethyl]-1H-pyrrolo[3,2-c]pyridine], the inhibition at 1 µM under setting [2] stood at 100%.

With `Cc1nc(-c2ccc(N3CCN(C(C)C)CC3)cc2)c2cc(CCN3CCOCC3)[nH]c2c1C` [Example B6, 4-[2-[4-[4-(4-isopropylpiperazin-1-yl)phenyl]-6,7-dimethyl-1H-pyrrolo[3,2-c]pyridin-2-yl]ethyl]morpholine], the inhibition at 1 µM is, setting by setting: under setting [1], 100%; under setting [2], 100%.

Regarding `Cc1nc(-c2ccc(N3CCN(C)CC3)cc2)c2cc(CCN3CCOCC3)[nH]c2c1C` [Example B7, 4-[2-[6,7-dimethyl-4-[4-(4-methylpiperazin-1-yl)phenyl]-1H-pyrrolo[3,2-c]pyridin-2-yl]ethyl]morpholine], the inhibition at 1 µM under setting [2] is 100%. In the case of `CCN1CCN(c2ccc(-c3nc(C)c(C)c4[nH]c(CCN5CCOCC5)cc34)cc2)CC1` [Example B8, 4-[2-[4-[4-(4-ethylpiperazin-1-yl)phenyl]-6,7-dimethyl-1H-pyrrolo[3,2-c]pyridin-2-yl]ethyl]morpholine], the inhibition at 1 µM under setting [2] was determined as 93%. In the case of `Cc1nc(-c2ccc(N3CCN(C(C)C)CC3)cc2)c2cc(CCN3CCCC3)[nH]c2c1C` [Example B10, 4-[4-(4-isopropylpiperazin-1-yl)phenyl]-6,7-dimethyl-2-(2-pyrrolidin-1-ylethyl)-1H-pyrrolo[3,2-c]pyridine], the inhibition at 1 µM under setting [1] worked out at 100% and the inhibition at 1 µM under setting [2] worked out at 100%. Take `Cc1cc2c(cc(CCN3CCOCC3)n2C)c(-c2ccc(N3CCN(C(C)C)CC3)cc2)n1` [Example B11, 4-[2-[4-[4-(4-isopropylpiperazin-1-yl)phenyl]-1,6-dimethyl-pyrrolo[3,2-c]pyridin-2-yl]ethyl]morpholine]: the inhibition at 1 µM under setting [1] is 100% and the inhibition at 1 µM under setting [2] stood at 100%.

On to `Cc1cc2c(cc(CCN3CCOCC3)n2C)c(-c2ccc(N3CCN(C(C)C)CC3)cc2F)n1` [Example B19, 4-[2-[4-[2-fluoro-4-(4-isopropylpiperazin-1-yl)phenyl]-1,6-dimethyl-pyrrolo[3,2-c]pyridin-2-yl]ethyl]morpholine], for which the inhibition at 1 µM turned out to be 100% under setting [1] and 100% under setting [2]. As for `Cc1cc2c(cc(CCN3CCOCC3)n2C)c(-c2cccc(N3CCN(C(C)C)CC3)c2)n1` [Example B21, 4-[2-[4-[3-(4-isopropylpiperazin-1-yl)phenyl]-1,6-dimethyl-pyrrolo[3,2-c]pyridin-2-yl]ethyl]morpholine], the inhibition at 1 µM came to 100% under setting [1] and 100% under setting [2]. Consider `COc1cc(-c2nc(C)cc3c2cc(CCN2CCOCC2)n3C)ccc1N1CCN(C(C)C)CC1` [Example B22, 4-[2-[4-[4-(4-isopropylpiperazin-1-yl)-3-methoxy-phenyl]-1,6-dimethyl-pyrrolo[3,2-c]pyridin-2-yl]ethyl]morpholine], for which the inhibition at 1 µM reads like this: under setting [1], 100%; under setting [2], 92%. In the case of `Cc1cc2c(cc(CCN3CCOCC3)n2C)c(C2CCC(N3CCN(C(C)C)CC3)CC2)n1` (stereo not shown) [Example B27, 4-[2-[4-[4-(4-isopropylpiperazin-1-yl)cyclohexyl]-1,6-dimethyl-pyrrolo[3,2-c]pyridin-2-yl]ethyl]morpholine], the inhibition at 1 µM was 100% under setting [1] and 72% under setting [2].
